Experimental data as given in the supplement of paper PMC10627819.

Key:
S. pneumoniae D39V [1] = test: Bliss interaction score (quartile over a dose matrix) (fitness difference); higher = more antagonism (negative = synergy)
In short: (§1)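 Each OD595 reading at entry into stationary phase was scaled to the robust mean of the untreated wells on its plate, with a ceiling of 1. These ratios define fitness, and single-drug fitness was inferred from combinations. The Bliss score compares observed fitness with the product-based expectation and is reported as quartiles across all replicate types, technical, biological and donor/recipient.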

S. aureus DSM 20231 = test: as above
In short: as §1

S. aureus Newman [2] = test: as above
In short: as §1

B. subtilis 168 [3] = test: as above
In short: as §1

S. pneumoniae D39V [4] = test: fitness (endpoint OD595 vs no drug) (fraction); higher = more growth
In short: (§2)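 Background-subtracted growth curves were the basis for fitness, taken as the optical density at entry into stationary phase over the robust mean of no-drug control wells. A cap of 1 was applied. The curves came from OD595 readings every 30 min for 14 h at 37 °C, in 384-well plates seeded at OD595 0.01 with 30 µl, or 55 µl for S. pneumoniae.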

S. aureus Newman [5] = test: as above
In short: as §2

B. subtilis 168 [6] = test: as above
In short: as §2
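For Bliss interaction score (quartile over a dose matrix) in this document: first quartile when negative (synergy) and third quartile when positive (antagonism).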

C[C@@H]1O[C@@H]1P(=O)(O)O [Fosfomycin] + CN(C)c1cc(NC(=O)CNC(C)(C)C)c(O)c2c1C[C@H]1C[C@H]3[C@H](N(C)C)C(O)=C(C(N)=O)C(=O)[C@@]3(O)C(O)=C1C2=O [Tigecycline]
Conditions | Bliss interaction score
B. subtilis 168 [3] | -0.0396
S. aureus DSM 20231 | 0.044
S. aureus Newman [2] | -0.0631
S. pneumoniae D39V [1] | 0.0555

Conditions | fitness
B. subtilis 168 [6], first compound 1.562 µg/mL, partner 0.039 µg/mL | 0.76
B. subtilis 168 [6], first compound 1.562 µg/mL, partner 0.078 µg/mL | 0.746
B. subtilis 168 [6], first compound 1.562 µg/mL, partner 0.156 µg/mL | 0.713
B. subtilis 168 [6], first compound 3.124 µg/mL, partner 0.039 µg/mL | 0.655
B. subtilis 168 [6], first compound 3.124 µg/mL, partner 0.078 µg/mL | 0.598
B. subtilis 168 [6], first compound 3.124 µg/mL, partner 0.156 µg/mL | 0.595
B. subtilis 168 [6], first compound 6.248 µg/mL, partner 0.039 µg/mL | 0.52
B. subtilis 168 [6], first compound 6.248 µg/mL, partner 0.078 µg/mL | 0.488
B. subtilis 168 [6], first compound 6.248 µg/mL, partner 0.156 µg/mL | 0.492
S. aureus Newman [5], first compound 0.781 µg/mL, partner 0.039 µg/mL | 0.558
S. aureus Newman [5], first compound 0.781 µg/mL, partner 0.078 µg/mL | 0.57
S. aureus Newman [5], first compound 0.781 µg/mL, partner 0.156 µg/mL | 0.593
S. aureus Newman [5], first compound 1.562 µg/mL, partner 0.039 µg/mL | 0.47
S. aureus Newman [5], first compound 1.562 µg/mL, partner 0.078 µg/mL | 0.504
S. aureus Newman [5], first compound 1.562 µg/mL, partner 0.156 µg/mL | 0.518
S. aureus Newman [5], first compound 3.124 µg/mL, partner 0.039 µg/mL | 0.177
S. aureus Newman [5], first compound 3.124 µg/mL, partner 0.078 µg/mL | 0.188
S. aureus Newman [5], first compound 3.124 µg/mL, partner 0.156 µg/mL | 0.184
S. pneumoniae D39V [4], first compound 1.25 µg/mL, partner 0.325 µg/mL | 0.929
S. pneumoniae D39V [4], first compound 1.25 µg/mL, partner 0.65 µg/mL | 0.921
S. pneumoniae D39V [4], first compound 1.25 µg/mL, partner 1.3 µg/mL | 0.942
S. pneumoniae D39V [4], first compound 1.25 µg/mL, partner 2.6 µg/mL | 0.921
S. pneumoniae D39V [4], first compound 2.5 µg/mL, partner 0.325 µg/mL | 0.953
S. pneumoniae D39V [4], first compound 2.5 µg/mL, partner 0.65 µg/mL | 0.912
S. pneumoniae D39V [4], first compound 2.5 µg/mL, partner 1.3 µg/mL | 0.92
S. pneumoniae D39V [4], first compound 2.5 µg/mL, partner 2.6 µg/mL | 0.86
S. pneumoniae D39V [4], first compound 5 µg/mL, partner 0.325 µg/mL | 0.796
S. pneumoniae D39V [4], first compound 5 µg/mL, partner 0.65 µg/mL | 0.748
S. pneumoniae D39V [4], first compound 5 µg/mL, partner 1.3 µg/mL | 0.791
S. pneumoniae D39V [4], first compound 5 µg/mL, partner 2.6 µg/mL | 0.809

fitness, B. subtilis 168 [6], one replicate
Conditions | first compound 1.562 µg/mL | first compound 3.124 µg/mL | first compound 6.248 µg/mL
partner 0.125 µg/mL | 0.833 | 0.771 | 0.576
partner 0.25 µg/mL | 0.819 | 0.662 | 0.537
partner 0.5 µg/mL | 0.753 | 0.683 | 0.568

O=C(O)c1cn(C2CC2)c2cc(N3CCNCC3)c(F)cc2c1=O [Ciprofloxacin] + CCN(CC)CCOC(=O)c1ccc(N)cc1 [Procaine]
Conditions | Bliss interaction score
B. subtilis 168 [3] | -0.0792
S. aureus DSM 20231 | -0.053
S. aureus Newman [2] | 0.0759
S. pneumoniae D39V [1] | 0.0982

fitness
Conditions | partner 85.5 µg/mL | partner 171 µg/mL | partner 342 µg/mL
B. subtilis 168 [6], first compound 0.0098 µg/mL | 0.883 | 0.918 | 0.918
B. subtilis 168 [6], first compound 0.0195 µg/mL | 0.688 | 0.755 | 0.721
B. subtilis 168 [6], first compound 0.039 µg/mL | 0.0386 | 0.0363 | 0.0396
S. aureus Newman [5], first compound 0.0375 µg/mL | 0.65 | 0.644 | 0.635
S. aureus Newman [5], first compound 0.075 µg/mL | 0.658 | – | –
S. pneumoniae D39V [4], first compound 0.125 µg/mL | ≥ 1 | ≥ 1 | ≥ 1
S. pneumoniae D39V [4], first compound 0.25 µg/mL | 0.9 | 0.923 | 0.91

O=C(O)c1cn(C2CC2)c2cc(N3CCNCC3)c(F)cc2c1=O [Ciprofloxacin] + C[n+]1ccc(-c2cc[n+](C)cc2)cc1 [Paraquat]
Conditions | Bliss interaction score
B. subtilis 168 [3] | -0.0477
S. aureus DSM 20231 | -0.0499
S. aureus Newman [2] | -0.0507
S. pneumoniae D39V [1] | 0.0853

Conditions | fitness
B. subtilis 168 [6], first compound 0.0098 µg/mL, partner 1.25 µg/mL | 0.895
B. subtilis 168 [6], first compound 0.0098 µg/mL, partner 2.5 µg/mL | 0.922
B. subtilis 168 [6], first compound 0.0098 µg/mL, partner 5 µg/mL | 0.788
B. subtilis 168 [6], first compound 0.0195 µg/mL, partner 1.25 µg/mL | 0.753
B. subtilis 168 [6], first compound 0.0195 µg/mL, partner 2.5 µg/mL | 0.657
B. subtilis 168 [6], first compound 0.0195 µg/mL, partner 5 µg/mL | 0.687
B. subtilis 168 [6], first compound 0.039 µg/mL, partner 1.25 µg/mL | 0.171
B. subtilis 168 [6], first compound 0.039 µg/mL, partner 2.5 µg/mL | 0.171
B. subtilis 168 [6], first compound 0.039 µg/mL, partner 5 µg/mL | 0.234
S. aureus Newman [5], first compound 0.0375 µg/mL, partner 1.25 µg/mL | 0.662
S. aureus Newman [5], first compound 0.0375 µg/mL, partner 2.5 µg/mL | 0.639
S. aureus Newman [5], first compound 0.0375 µg/mL, partner 5 µg/mL | 0.642
S. aureus Newman [5], first compound 0.075 µg/mL, partner 1.25 µg/mL | 0.674
S. aureus Newman [5], first compound 0.075 µg/mL, partner 2.5 µg/mL | 0.635
S. aureus Newman [5], first compound 0.075 µg/mL, partner 5 µg/mL | 0.663
S. aureus Newman [5], first compound 0.15 µg/mL, partner 1.25 µg/mL | 0.033
S. aureus Newman [5], first compound 0.15 µg/mL, partner 2.5 µg/mL | 0.0399
S. aureus Newman [5], first compound 0.15 µg/mL, partner 5 µg/mL | 0.0549
S. pneumoniae D39V [4], first compound 0.125 µg/mL, partner 1.5 µg/mL | 0.983
S. pneumoniae D39V [4], first compound 0.125 µg/mL, partner 3 µg/mL | 0.974
S. pneumoniae D39V [4], first compound 0.125 µg/mL, partner 6 µg/mL | 0.97
S. pneumoniae D39V [4], first compound 0.25 µg/mL, partner 1.5 µg/mL | 0.942
S. pneumoniae D39V [4], first compound 0.25 µg/mL, partner 3 µg/mL | 0.913
S. pneumoniae D39V [4], first compound 0.25 µg/mL, partner 6 µg/mL | 0.902
S. pneumoniae D39V [4], first compound 0.5 µg/mL, partner 1.5 µg/mL | 0.877
S. pneumoniae D39V [4], first compound 0.5 µg/mL, partner 3 µg/mL | 0.875

COc1cccc2c1C(=O)c1c(O)c3c(c(O)c1C2=O)C[C@@](O)(C(=O)CO)C[C@@H]3O[C@H]1C[C@H](N)[C@H](O)[C@H](C)O1 [Doxorubicin] + CN(C)c1cc(NC(=O)CNC(C)(C)C)c(O)c2c1C[C@H]1C[C@H]3[C@H](N(C)C)C(O)=C(C(N)=O)C(=O)[C@@]3(O)C(O)=C1C2=O [Tigecycline]
Conditions | Bliss interaction score
B. subtilis 168 [3] | 0.0886
S. aureus DSM 20231 | -0.0419
S. aureus Newman [2] | -0.0645
S. pneumoniae D39V [1] | 0.0654

fitness
Conditions | first compound 0.25 µg/mL | first compound 0.5 µg/mL | first compound 0.625 µg/mL | first compound 1 µg/mL | first compound 1.25 µg/mL | first compound 2.5 µg/mL
B. subtilis 168 [6], partner 0.039 µg/mL | – | – | ≥ 1 | – | 0.952 | 0.65
B. subtilis 168 [6], partner 0.078 µg/mL | – | – | 0.868 | – | 0.939 | 0.609
B. subtilis 168 [6], partner 0.156 µg/mL | – | – | 0.919 | – | 0.879 | 0.693
S. aureus Newman [5], partner 0.039 µg/mL | – | – | 0.783 | – | 0.761 | 0.71
S. aureus Newman [5], partner 0.078 µg/mL | – | – | 0.822 | – | 0.821 | 0.742
S. aureus Newman [5], partner 0.156 µg/mL | – | – | 0.828 | – | 0.811 | 0.744
S. pneumoniae D39V [4], partner 0.325 µg/mL | 0.927 | 0.975 | – | 0.931 | – | –
S. pneumoniae D39V [4], partner 0.65 µg/mL | 0.928 | 0.94 | – | 0.89 | – | –
S. pneumoniae D39V [4], partner 1.3 µg/mL | 0.926 | 0.961 | – | 0.884 | – | –
S. pneumoniae D39V [4], partner 2.6 µg/mL | 0.874 | 0.912 | – | 0.79 | – | –

fitness, B. subtilis 168 [6], one replicate
Conditions | first compound 0.625 µg/mL | first compound 1.25 µg/mL | first compound 2.5 µg/mL
partner 0.125 µg/mL | 0.963 | 0.984 | 0.973
partner 0.25 µg/mL | 0.89 | 0.892 | 0.916
partner 0.5 µg/mL | 0.86 | 0.913 | 0.925

C[C@@H]1O[C@@H]1P(=O)(O)O [Fosfomycin] + CC(C1CCC(C(O1)OC2C(CC(C(C2O)OC3C(C(C(CO3)(C)O)NC)O)N)N)N)NC [Gentamicin]
main component drawn
Conditions | Bliss interaction score
B. subtilis 168 [3] | 0.152
S. aureus DSM 20231 | -0.0757
S. aureus Newman [2] | 0.152
S. pneumoniae D39V [1] | -0.0335

main component drawn
Conditions | fitness
B. subtilis 168 [6], first compound 1.562 µg/mL, partner 0.0625 µg/mL | 0.757
B. subtilis 168 [6], first compound 3.124 µg/mL, partner 0.0625 µg/mL | 0.629
S. aureus Newman [5], first compound 0.781 µg/mL, partner 0.5 µg/mL | 0.705
S. aureus Newman [5], first compound 0.781 µg/mL, partner 1 µg/mL | 0.802
S. aureus Newman [5], first compound 0.781 µg/mL, partner 2 µg/mL | 0.796
S. aureus Newman [5], first compound 1.562 µg/mL, partner 0.5 µg/mL | 0.585
S. aureus Newman [5], first compound 1.562 µg/mL, partner 1 µg/mL | 0.65
S. aureus Newman [5], first compound 1.562 µg/mL, partner 2 µg/mL | 0.666
S. aureus Newman [5], first compound 3.124 µg/mL, partner 0.5 µg/mL | 0.422
S. aureus Newman [5], first compound 3.124 µg/mL, partner 1 µg/mL | 0.455
S. aureus Newman [5], first compound 3.124 µg/mL, partner 2 µg/mL | 0.464
S. pneumoniae D39V [4], first compound 1.25 µg/mL, partner 2 µg/mL | 0.96
S. pneumoniae D39V [4], first compound 1.25 µg/mL, partner 4 µg/mL | 0.944
S. pneumoniae D39V [4], first compound 1.25 µg/mL, partner 8 µg/mL | 0.948
S. pneumoniae D39V [4], first compound 2.5 µg/mL, partner 2 µg/mL | 0.941
S. pneumoniae D39V [4], first compound 2.5 µg/mL, partner 4 µg/mL | 0.896
S. pneumoniae D39V [4], first compound 2.5 µg/mL, partner 8 µg/mL | 0.876
S. pneumoniae D39V [4], first compound 5 µg/mL, partner 2 µg/mL | 0.715
S. pneumoniae D39V [4], first compound 5 µg/mL, partner 4 µg/mL | 0.674
S. pneumoniae D39V [4], first compound 5 µg/mL, partner 8 µg/mL | 0.72

fitness, S. aureus Newman [5], one replicate, main component drawn
Conditions | first compound 0.781 µg/mL | first compound 1.562 µg/mL | first compound 3.124 µg/mL
partner 0.375 µg/mL | 0.589 | 0.554 | 0.236
partner 0.75 µg/mL | 0.596 | 0.571 | 0.232
partner 1.5 µg/mL | 0.537 | 0.447 | 0.119
